Assay results: US6514969B2, “β-amyloid inhibitors, processes for preparing them, and their use in pharmaceutical compositions” (Boehringer Ingelheim Pharma KG, priority 2000, dated 2003)

System: Aβ formation in human astroglioma cells (U 373) transfected with human APP751 (U373-K10)
Experiment: Inhibition of Aβ formation in medium of APP751-overexpressing U373-K10 cells (ELISA)
Format: cell-based
Conditions: U373 MG
Text: The compounds according to the invention are characterized in that they inhibit the process of the formation of Aβ or its release from cells. This property was investigated according to the test described below.
The inhibition of Aβ formation was investigated in the medium of a cell line overexpressing APP751. For this purpose, human astroglioma cells (U 373, ATCC) were stably transfected with the gene for human APP751 under the control of a CMV promoter (vector pRC-CMV). A clone with a high APP751 expression (U373-K10) was selected. In order to carry out the assay the cells are plated out in 96-well plates (Falcon) in Dulbecco's-Minimal-Essential medium (DMEM, Bio-Whittaker) with 10% FCS and cultivated to confluence at 37° C./5% CO2.
The substances to be tested are first dissolved in 100% DMSO and then diluted to the test concentration in culture medium, so that the DMSO concentration of the test solution is always below 0.5%.
150 μl of the test solution are added per well to a confluent culture plate which has previously been washed once with DMEM, and pre-incubated for about 16 hours. This solution is replaced by 150 μl of fresh test solution after 1 wash and incubated again for 4 hours.
100 μl of this four-hour supernatant are transferred to an ELISA plate (Nunc) coated with the antibody 6E10 (specific for Aβ1-16, Senetek), and incubated overnight at 4° C. The Aβ is determined the next day by means of the alkaline phosphatase-conjugated antibody 6B10, which is specific for Aβ32-40.

Row | SMILES | IC50 [µM]
1 | O=c1[nH]c2ccccc2n1C1CCN(CCCc2c(-c3ccccc3)nc3ccccn23)CC1 [Example 12, 1-{1-[3-(2-phenylimidazo[1,2-a]pyridin-3-yl)propyl]piperidin-4-yl}-1,3-dihydrobenzimidazol-2-one] | 12
2 | O=c1[nH]c2ccccc2n1C1CCN(CCCc2c(-c3ccc(Cl)cc3)nc3ccccn23)CC1 [Example 13, 1-{1-[3-(2-p-chlorophenylimidazo[1,2-a]pyridin-3-yl)propyl]piperidin-4-yl}-1,3-dihydrobenzimidazol-2-one] | 15
3 | O=C(/C=C/c1c(-c2ccccc2)nc2ccccn12)N1CCC(n2c(=O)[nH]c3ccccc32)CC1 [Example 21] | 20

Further lines, results first:

Row | IC50 [µM] | SMILES
4 | 30 | Clc1ccc(-c2nc3ccccn3c2CCCN2CCN(Cc3ccccc3)CC2)cc1 [Example 14, 3-[3-(4-benzylpiperazin-1-yl)propyl]-2-(4-chlorophenyl)imidazo[1,2-a]pyridine]
5 | 35 | Clc1ccc(CN2CCN(CCCc3c(-c4ccc(Cl)cc4)nc4ccccn34)CC2)cc1 [Example 20, 3-{3-[4-(4-chlorobenzyl)piperazin-1-yl]propyl}-2-(4-chlorophenyl)imidazo[1,2-a]pyridine]
